Measurements from PubChem BioAssay AID2060882 (Molecular Pharmacology Branch, DTP, NCI, 2025).

System: 898857-211-R-J1-PDC complex spheroids, growth % test/control
Assay: Anticancer human tumor 898857-211-R-J1-PDC patient-derived melanoma cell line growth inhibition [RAS]
Settings: for IC50: curve of first compound; for viability, T/C: stronger effect = lower value
Summary of the method: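 Agents were tested in combination matrices in half-log decrements from a top concentration at or near clinical Cmax (10 microM if undetermined). Targets were multi-cell spheroids of tumour lines plus HUVEC and MSC stromal cells.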
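Note: spheroids exposed to compound for seven days before readout.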
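Throughout, for viability, T/C: 100% = DMSO vehicle control wells.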

Question: CCN1CCN(Cc2ccc(Nc3ncc(F)c(-c4cc(F)c5nc(C)n(C(C)C)c5c4)n3)nc2)CC1 + CCn1c(-c2cc(N3CCN(C)CC3)cnc2C(C)OC)c2c3cc(ccc31)-c1csc(n1)CC(NC(=O)C1CC1C)C(=O)N1CCCC(N1)C(=O)OCC(C)(C)C2 was tested. Which IC50 (second compound 0.000949 µM) did it give?
Answer: 267 nM

Question: And the IC50 (second compound 0.003 µM)?
Answer: 191 nM

Question: And the IC50 (second compound 0.00949 µM)?
Answer: 261 nM

Question: And the IC50 (second compound 0.03 µM)?
Answer: 248 nM

Question: What about the IC50 (second compound 0.0949 µM) of the same compound?
Answer: 252 nM

Question: And the IC50 (second compound 0.3 µM)?
Answer: 288 nM

Question: And the viability, T/C (second compound 0.000949 µM, first compound 0.00316 µM)?
Answer: 108%

Question: And the viability, T/C (second compound 0.000949 µM, first compound 0.01 µM)?
Answer: 94.2%

Question: And the viability, T/C (second compound 0.000949 µM, first compound 0.0316 µM)?
Answer: 82.1%

Question: What about the viability, T/C (second compound 0.000949 µM, first compound 0.1 µM) of the same compound?
Answer: 57.4%

Question: What about the viability, T/C (second compound 0.000949 µM, first compound 0.316 µM) of the same compound?
Answer: 51.6%

Question: What about the viability, T/C (second compound 0.000949 µM, first compound 1 µM) of the same compound?
Answer: 36.9%

Question: And the viability, T/C (second compound 0.003 µM, first compound 0.00316 µM)?
Answer: 105%

Question: And the viability, T/C (second compound 0.003 µM, first compound 0.01 µM)?
Answer: 96%

Question: What about the viability, T/C (second compound 0.003 µM, first compound 0.0316 µM) of the same compound?
Answer: 85.8%

Question: What about the viability, T/C (second compound 0.003 µM, first compound 0.1 µM) of the same compound?
Answer: 54.9%

Question: What about the viability, T/C (second compound 0.003 µM, first compound 0.316 µM) of the same compound?
Answer: 47.7%

Question: And the viability, T/C (second compound 0.003 µM, first compound 1 µM)?
Answer: 38.1%

Question: What about the viability, T/C (second compound 0.00949 µM, first compound 0.00316 µM) of the same compound?
Answer: 96.8%

Question: And the viability, T/C (second compound 0.00949 µM, first compound 0.01 µM)?
Answer: 97.4%

Question: What about the viability, T/C (second compound 0.00949 µM, first compound 0.0316 µM) of the same compound?
Answer: 82.3%

Question: And the viability, T/C (second compound 0.00949 µM, first compound 0.1 µM)?
Answer: 79.8%

Question: And the viability, T/C (second compound 0.00949 µM, first compound 0.316 µM)?
Answer: 42.7%

Question: And the viability, T/C (second compound 0.00949 µM, first compound 1 µM)?
Answer: 36.4%

Question: And the viability, T/C (second compound 0.03 µM, first compound 0.00316 µM)?
Answer: 96.9%

Question: What about the viability, T/C (second compound 0.03 µM, first compound 0.01 µM) of the same compound?
Answer: 102%

Question: And the viability, T/C (second compound 0.03 µM, first compound 0.0316 µM)?
Answer: 75.4%

Question: What about the viability, T/C (second compound 0.03 µM, first compound 0.1 µM) of the same compound?
Answer: 67.4%

Question: What about the viability, T/C (second compound 0.03 µM, first compound 0.316 µM) of the same compound?
Answer: 46.3%

Question: And the viability, T/C (second compound 0.03 µM, first compound 1 µM)?
Answer: 29.4%

Question: What about the viability, T/C (second compound 0.0949 µM, first compound 0.00316 µM) of the same compound?
Answer: 107%

Question: What about the viability, T/C (second compound 0.0949 µM, first compound 0.01 µM) of the same compound?
Answer: 113%

Question: What about the viability, T/C (second compound 0.0949 µM, first compound 0.0316 µM) of the same compound?
Answer: 87.2%

Question: What about the viability, T/C (second compound 0.0949 µM, first compound 0.1 µM) of the same compound?
Answer: 64.3%

Question: And the viability, T/C (second compound 0.0949 µM, first compound 0.316 µM)?
Answer: 48.9%

Question: And the viability, T/C (second compound 0.0949 µM, first compound 1 µM)?
Answer: 39%

Question: And the viability, T/C (second compound 0.3 µM, first compound 0.00316 µM)?
Answer: 117%

Question: What about the viability, T/C (second compound 0.3 µM, first compound 0.01 µM) of the same compound?
Answer: 110%

Question: And the viability, T/C (second compound 0.3 µM, first compound 0.0316 µM)?
Answer: 76%

Question: What about the viability, T/C (second compound 0.3 µM, first compound 0.1 µM) of the same compound?
Answer: 70.2%

Question: And the viability, T/C (second compound 0.3 µM, first compound 0.316 µM)?
Answer: 48.5%

Question: And the viability, T/C (second compound 0.3 µM, first compound 1 µM)?
Answer: 33.9%
